In ChEMBL document CHEMBL5126529, “Drug discovery of histone lysine demethylases (KDMs) inhibitors (progress from 2018 to present)” (Eur J Med Chem, 2022):
pIC50, pKd, pKi: −log10 of the molar value.

Assays:
[1] = biological target: T1, Lysine-specific histone demethylase 1A (Homo sapiens, UniProt O60341)
[2] = biological target: Lysine-specific demethylase 4A (Homo sapiens) (UniProt O75164); test: Inhibition of recombinant KDM4A (unknown origin) assessed as residual activity using H3K9me3 peptide as substrate incubated for 60 mins by fluorescence based assay relative to control
[3] = biological target: Lysine-specific demethylase 3B (Homo sapiens, UniProt Q7LBC6); test: Binding affinity to CM7 sensor chip immobilized full-length KDM3B (unknown origin) expressed in Sf9 insect cells assessed as dissociation constant incubated for 60 secs by SPR analysis
Chain of Lysine-specific demethylase 3B (Q7LBC6 whole entry, the tested form may be a part): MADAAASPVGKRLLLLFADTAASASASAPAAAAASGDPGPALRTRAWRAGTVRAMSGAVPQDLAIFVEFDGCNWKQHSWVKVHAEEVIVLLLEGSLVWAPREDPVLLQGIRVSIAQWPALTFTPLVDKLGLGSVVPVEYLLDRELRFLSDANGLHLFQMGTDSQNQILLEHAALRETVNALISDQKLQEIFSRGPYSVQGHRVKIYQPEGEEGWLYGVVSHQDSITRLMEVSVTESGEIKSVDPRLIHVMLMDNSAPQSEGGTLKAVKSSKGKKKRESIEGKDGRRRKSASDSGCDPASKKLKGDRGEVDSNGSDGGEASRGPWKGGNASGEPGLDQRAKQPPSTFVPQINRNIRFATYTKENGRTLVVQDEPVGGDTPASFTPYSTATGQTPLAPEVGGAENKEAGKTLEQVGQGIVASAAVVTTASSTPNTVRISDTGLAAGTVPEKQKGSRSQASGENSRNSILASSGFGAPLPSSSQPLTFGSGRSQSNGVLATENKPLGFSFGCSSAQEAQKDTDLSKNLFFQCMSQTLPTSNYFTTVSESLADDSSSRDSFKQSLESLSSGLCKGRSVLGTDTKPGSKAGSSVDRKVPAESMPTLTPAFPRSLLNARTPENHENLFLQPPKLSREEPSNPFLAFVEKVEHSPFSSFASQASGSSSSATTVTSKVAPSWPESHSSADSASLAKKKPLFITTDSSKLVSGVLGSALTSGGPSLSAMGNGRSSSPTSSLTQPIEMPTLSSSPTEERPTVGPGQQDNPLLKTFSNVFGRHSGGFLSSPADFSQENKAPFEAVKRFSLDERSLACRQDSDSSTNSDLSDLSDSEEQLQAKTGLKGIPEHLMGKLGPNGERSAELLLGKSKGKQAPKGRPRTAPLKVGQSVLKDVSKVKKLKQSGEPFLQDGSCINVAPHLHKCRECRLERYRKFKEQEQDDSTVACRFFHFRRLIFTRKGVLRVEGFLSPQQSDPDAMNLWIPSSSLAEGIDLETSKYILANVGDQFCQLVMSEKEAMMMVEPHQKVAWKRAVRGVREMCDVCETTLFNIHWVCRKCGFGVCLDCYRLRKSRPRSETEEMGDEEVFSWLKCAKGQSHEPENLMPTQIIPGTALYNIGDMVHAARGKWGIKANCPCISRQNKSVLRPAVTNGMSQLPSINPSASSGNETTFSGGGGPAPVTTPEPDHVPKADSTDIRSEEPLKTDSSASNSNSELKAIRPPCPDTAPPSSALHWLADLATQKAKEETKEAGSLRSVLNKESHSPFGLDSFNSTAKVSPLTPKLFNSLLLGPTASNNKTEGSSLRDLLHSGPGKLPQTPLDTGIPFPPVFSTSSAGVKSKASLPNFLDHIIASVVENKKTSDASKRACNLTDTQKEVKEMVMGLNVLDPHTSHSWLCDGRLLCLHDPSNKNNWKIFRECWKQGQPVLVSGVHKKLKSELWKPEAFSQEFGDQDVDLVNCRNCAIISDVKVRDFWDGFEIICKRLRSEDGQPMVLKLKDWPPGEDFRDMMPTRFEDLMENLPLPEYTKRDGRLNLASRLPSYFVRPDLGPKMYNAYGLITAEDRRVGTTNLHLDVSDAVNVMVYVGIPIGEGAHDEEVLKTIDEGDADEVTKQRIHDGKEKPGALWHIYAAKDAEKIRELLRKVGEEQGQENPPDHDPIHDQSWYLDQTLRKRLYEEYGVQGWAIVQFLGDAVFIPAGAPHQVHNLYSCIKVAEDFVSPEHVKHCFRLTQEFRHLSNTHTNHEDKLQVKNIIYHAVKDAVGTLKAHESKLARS

[4] = biological target: Probable JmjC domain-containing histone demethylation protein 2C (Homo sapiens, UniProt Q15652); test: Binding affinity to CM7 sensor chip immobilized partial-length JMJD1C (2274 to 2498 residues) (unknown origin) expressed in Escherichia coli assessed as dissociation constant incubated for 60 secs by SPR analysis
Chain of Probable JmjC domain-containing histone demethylation protein 2C (Q15652 whole entry, the tested form may be a part): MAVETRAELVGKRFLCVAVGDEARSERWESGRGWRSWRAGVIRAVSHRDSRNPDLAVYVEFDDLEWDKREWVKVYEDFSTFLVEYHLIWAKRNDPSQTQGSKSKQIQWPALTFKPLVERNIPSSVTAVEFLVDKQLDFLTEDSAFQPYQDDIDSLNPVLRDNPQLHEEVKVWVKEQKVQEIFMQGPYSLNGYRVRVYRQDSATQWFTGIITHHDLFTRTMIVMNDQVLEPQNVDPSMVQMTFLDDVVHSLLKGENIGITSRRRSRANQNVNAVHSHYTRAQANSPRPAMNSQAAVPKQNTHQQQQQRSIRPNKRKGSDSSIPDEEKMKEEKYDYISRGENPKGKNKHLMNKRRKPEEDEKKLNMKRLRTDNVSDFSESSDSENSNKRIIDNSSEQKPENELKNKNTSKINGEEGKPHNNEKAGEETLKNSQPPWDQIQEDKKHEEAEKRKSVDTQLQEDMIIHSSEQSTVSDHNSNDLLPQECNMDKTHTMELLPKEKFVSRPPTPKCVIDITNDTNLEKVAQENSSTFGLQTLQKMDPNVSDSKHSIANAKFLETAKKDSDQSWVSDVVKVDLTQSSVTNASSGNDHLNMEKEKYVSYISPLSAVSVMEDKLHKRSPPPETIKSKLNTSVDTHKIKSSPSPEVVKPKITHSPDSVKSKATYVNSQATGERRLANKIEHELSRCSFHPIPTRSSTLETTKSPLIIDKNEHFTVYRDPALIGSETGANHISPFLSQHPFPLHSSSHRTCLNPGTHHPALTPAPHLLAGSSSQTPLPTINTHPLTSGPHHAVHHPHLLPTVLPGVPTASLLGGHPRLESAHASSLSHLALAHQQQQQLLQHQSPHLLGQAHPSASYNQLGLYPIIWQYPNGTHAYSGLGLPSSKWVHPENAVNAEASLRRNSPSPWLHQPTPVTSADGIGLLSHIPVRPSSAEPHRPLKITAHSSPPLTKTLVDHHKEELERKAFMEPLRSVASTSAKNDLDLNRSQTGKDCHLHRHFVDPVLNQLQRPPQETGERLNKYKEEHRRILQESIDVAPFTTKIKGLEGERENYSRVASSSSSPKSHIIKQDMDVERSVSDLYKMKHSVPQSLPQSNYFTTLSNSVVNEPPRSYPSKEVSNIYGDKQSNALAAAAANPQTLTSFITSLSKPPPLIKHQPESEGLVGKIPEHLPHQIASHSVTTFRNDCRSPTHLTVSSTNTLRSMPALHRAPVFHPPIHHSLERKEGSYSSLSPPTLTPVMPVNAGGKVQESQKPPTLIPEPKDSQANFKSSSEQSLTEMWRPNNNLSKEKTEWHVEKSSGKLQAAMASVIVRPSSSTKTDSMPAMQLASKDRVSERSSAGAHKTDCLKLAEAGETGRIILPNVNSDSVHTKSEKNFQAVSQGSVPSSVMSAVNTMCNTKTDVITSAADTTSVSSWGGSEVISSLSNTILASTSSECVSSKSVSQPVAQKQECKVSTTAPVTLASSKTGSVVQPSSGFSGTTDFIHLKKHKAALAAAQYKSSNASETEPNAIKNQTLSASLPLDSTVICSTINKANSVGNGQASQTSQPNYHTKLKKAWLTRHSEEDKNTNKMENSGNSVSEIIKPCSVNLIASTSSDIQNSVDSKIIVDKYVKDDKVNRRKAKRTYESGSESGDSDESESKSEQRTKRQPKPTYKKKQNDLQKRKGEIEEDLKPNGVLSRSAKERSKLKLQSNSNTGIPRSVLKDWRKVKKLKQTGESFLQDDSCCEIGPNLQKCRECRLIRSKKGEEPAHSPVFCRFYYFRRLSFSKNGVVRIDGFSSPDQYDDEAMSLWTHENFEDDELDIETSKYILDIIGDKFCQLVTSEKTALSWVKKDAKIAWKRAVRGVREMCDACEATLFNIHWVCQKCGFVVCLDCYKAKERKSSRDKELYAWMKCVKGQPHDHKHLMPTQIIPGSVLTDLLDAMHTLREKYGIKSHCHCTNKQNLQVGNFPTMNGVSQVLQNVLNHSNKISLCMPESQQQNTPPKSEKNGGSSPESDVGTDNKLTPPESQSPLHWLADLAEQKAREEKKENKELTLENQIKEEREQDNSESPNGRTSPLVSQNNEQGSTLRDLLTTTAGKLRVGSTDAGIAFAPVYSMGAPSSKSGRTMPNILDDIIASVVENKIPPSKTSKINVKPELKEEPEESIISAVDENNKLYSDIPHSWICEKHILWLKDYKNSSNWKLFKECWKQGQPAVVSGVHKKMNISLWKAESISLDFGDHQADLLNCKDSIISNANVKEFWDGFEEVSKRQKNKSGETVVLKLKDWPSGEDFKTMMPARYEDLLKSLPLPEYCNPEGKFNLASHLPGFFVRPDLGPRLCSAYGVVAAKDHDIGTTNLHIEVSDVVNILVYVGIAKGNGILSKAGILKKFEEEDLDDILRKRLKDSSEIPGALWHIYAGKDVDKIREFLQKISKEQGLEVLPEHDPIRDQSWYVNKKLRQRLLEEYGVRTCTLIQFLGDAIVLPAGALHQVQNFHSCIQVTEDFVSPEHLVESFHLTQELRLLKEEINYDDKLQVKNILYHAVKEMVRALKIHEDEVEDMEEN

[5] = biological target: T1, Lysine-specific histone demethylase 1A; test: Inhibition of KDM1A (unknown origin) by fluorescence based assay
[6] = biological target: T1, Lysine-specific histone demethylase 1A; test: Inhibition of recombinant human KDM1A (158 to 852 residues) using H3K4Me2 peptide as substrate preincubated for 15 mins followed by substrate addition measured after 60 mins by AlphaLISA assay
[7] = biological target: Lysine-specific demethylase 6B (Homo sapiens, UniProt O15054); test: Binding affinity to KDM6B (unknown origin) assessed as inhibition constant
[8] = biological target: T2, MAO-A (Homo sapiens, UniProt P21397); test: Inhibition of MAO-A (unknown origin) at 100 uM relative to control
T2 sequence (P21397 whole entry): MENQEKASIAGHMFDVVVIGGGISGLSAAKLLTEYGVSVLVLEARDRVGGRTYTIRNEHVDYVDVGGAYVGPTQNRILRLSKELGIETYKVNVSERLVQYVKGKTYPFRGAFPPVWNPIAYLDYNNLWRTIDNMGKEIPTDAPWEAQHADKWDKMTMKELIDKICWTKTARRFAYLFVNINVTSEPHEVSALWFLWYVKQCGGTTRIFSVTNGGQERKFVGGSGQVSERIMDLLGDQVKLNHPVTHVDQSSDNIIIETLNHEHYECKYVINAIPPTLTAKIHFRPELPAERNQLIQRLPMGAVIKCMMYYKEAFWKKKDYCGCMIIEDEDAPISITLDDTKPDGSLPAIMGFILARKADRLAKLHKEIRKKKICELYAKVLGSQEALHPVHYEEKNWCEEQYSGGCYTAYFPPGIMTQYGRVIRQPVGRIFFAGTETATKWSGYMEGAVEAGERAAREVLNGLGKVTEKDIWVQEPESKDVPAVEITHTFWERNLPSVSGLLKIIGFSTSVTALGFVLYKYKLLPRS

[9] = biological target: T1, Lysine-specific histone demethylase 1A; remark: listed apart in the source
[10] = biological target: T3, MAO-B (Homo sapiens, UniProt P27338); test: Inhibition of MAO-B (unknown origin) at 100 uM relative to control
T3 sequence (P27338 whole entry): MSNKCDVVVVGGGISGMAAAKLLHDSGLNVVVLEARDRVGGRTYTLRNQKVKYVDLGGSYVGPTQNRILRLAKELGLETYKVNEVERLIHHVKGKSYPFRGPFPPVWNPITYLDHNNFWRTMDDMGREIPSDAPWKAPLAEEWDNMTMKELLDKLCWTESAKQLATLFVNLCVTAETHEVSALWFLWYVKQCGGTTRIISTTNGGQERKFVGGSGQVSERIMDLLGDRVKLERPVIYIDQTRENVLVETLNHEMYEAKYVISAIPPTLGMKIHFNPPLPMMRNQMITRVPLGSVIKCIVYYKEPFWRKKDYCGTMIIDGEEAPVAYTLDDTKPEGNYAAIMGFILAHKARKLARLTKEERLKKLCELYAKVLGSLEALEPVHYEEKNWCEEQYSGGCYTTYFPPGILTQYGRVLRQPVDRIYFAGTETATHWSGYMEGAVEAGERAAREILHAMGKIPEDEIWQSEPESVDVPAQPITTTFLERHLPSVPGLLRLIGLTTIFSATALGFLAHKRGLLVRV

[11] = biological target: T4, Lysine-specific demethylase 4A (Homo sapiens, UniProt O75164); test: Inhibition of recombinant human KDM4A incubated for 30 mins by fluorescence based assay
T4 sequence (O75164 whole entry): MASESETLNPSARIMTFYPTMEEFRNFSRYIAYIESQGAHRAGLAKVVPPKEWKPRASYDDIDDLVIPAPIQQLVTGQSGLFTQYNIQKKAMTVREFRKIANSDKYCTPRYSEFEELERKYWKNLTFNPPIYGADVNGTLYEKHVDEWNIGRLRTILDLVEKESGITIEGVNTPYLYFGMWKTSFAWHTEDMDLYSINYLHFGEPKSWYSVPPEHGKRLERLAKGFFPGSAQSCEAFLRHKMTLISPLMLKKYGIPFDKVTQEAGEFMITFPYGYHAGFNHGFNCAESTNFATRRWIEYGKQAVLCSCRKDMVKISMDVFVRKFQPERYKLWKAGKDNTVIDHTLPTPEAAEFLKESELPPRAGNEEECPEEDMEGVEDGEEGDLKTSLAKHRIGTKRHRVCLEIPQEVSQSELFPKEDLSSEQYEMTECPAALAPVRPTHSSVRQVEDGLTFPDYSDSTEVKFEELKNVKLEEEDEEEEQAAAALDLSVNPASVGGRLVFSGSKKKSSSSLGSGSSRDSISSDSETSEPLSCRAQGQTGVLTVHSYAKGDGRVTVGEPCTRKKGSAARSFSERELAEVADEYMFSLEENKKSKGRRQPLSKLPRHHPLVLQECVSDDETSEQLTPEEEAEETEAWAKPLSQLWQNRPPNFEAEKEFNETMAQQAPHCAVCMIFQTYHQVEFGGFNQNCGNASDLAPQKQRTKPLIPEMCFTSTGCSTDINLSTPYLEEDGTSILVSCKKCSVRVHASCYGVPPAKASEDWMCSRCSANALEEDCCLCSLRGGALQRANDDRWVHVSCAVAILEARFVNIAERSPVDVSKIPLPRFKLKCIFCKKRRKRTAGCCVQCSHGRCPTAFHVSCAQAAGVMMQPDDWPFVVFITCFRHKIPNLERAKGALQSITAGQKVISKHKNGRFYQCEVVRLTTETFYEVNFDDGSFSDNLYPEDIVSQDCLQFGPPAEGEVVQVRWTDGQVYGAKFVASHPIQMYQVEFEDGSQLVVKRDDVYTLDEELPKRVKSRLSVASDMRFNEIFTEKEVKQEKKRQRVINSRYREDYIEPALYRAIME

[12] = biological target: T2, MAO-A; test: Inhibition of recombinant MAO-A (unknown origin) at 10 uM by luminometry relative to control
[13] = biological target: T3, MAO-B; test: Inhibition of recombinant MAO-B (unknown origin) at 10 uM by luminometry relative to control

## CSCC[C@H](NC(=O)[C@@H](NC(=O)[C@H](CCCNC(=N)N)NC(=O)[C@H](C)N)[C@@H](C)O)C(=O)N[C@@H](CCC(N)=O)C(=O)N[C@H](C(=O)N[C@@H](C)C(=O)N[C@@H](CCCNC(=N)N)C(=O)N[C@@H](CCCCN)C(=O)N[C@@H](CO)C(=O)N[C@H](C(=O)O)[C@@H](C)O)[C@@H](C)O
[1]
  pKd: 3.85

## CC(C)(C)OC(=O)NCc1cc2ccccc2[te]1
[2]
  Activity: 1.79%

## CC(=O)Nc1ccc(S(=O)(=O)N[C@H]2CO[C@H]3[C@@H]2OC[C@@H]3Nc2nccc(-c3cccc(F)c3)n2)cc1
[3]
  pKd: 4.79
[4]
  pKd: 4.57

## O=C(/C=C/c1ccc(O)c2c1[C@H](C(=O)OC(Cc1ccc(O)c(O)c1)C(=O)O)[C@@H](c1ccc(O)c(O)c1)O2)O[C@H](Cc1ccc(O)c(O)c1)C(=O)O (some centres undefined)
[5]
  pIC50: 6.96

## CC(=O)Nc1ccc(S(=O)(=O)N[C@H]2CO[C@H]3[C@@H]2OC[C@@H]3Nc2nccc(-c3ccccc3)n2)cc1
[3]
  pKd: 6.89
[4]
  pKd: 5.57

## C=C[C@]1(C)C[C@@H]2OC(=O)C(C)=C2C[C@H]1C(=C)C [ISOGERMAFURENOLIDE]
[5]
  pIC50: 5.40

## COCc1cccc(NC(=O)c2cc3ccccc3n2C)c1COc1ccc(OCC2CCNCC2)cc1
[6]
  pIC50: 5.40

## O=C(O)[C@H](O)Cc1ccc(O)c(O)c1
[7]
  pKi: 5.15

## NC1CC1c1ccc(NC(=O)c2ccc(-c3ccccc3)cc2)cc1 (centres undefined)
[8]
  inhibition at 100 µM: 2%
[9]
  pIC50: 7.29
[10]
  inhibition at 100 µM: 8%

## O=C(O)c1cc(O)c(=O)c2c(O)c(O)cc(-c3ccccc3)c2c1
[11]
  pIC50: 4.61

## COc1cc2c(cc1OC)-c1cc3ccc4c(c3c[n+]1CC2)OCO4
[12]
  inhibition at 10 µM: 70%
[13]
  inhibition at 10 µM: 40%

## CC(=O)Nc1ccc(S(=O)(=O)N[C@H]2CO[C@H]3[C@@H]2OC[C@@H]3Nc2nccc(-c3cccc(C(C)(C)C)c3)n2)cc1
[3]
  pKd: 5.11
[4]
  pKd: 5.09

## O=c1c(-c2ccc(O)cc2)coc2c([C@@H]3O[C@H](CO[C@@H]4OC[C@@H](O)[C@H](O)[C@H]4O)[C@@H](O)[C@H](O)[C@H]3O)c(O)ccc12
[7]
  pKi: 5.13
